Assays:
CgLDC = molecular target: T1, CgLDC (Colletotrichum gloeosporioides, UniProt A0A1X9J191); assay: LC-MS detection of cadaverine (m/z […]); format: biochemical; settings: pyridoxal phosphate 40 µg, potassium phosphate pH 8.0, 37 °C, 45 min; boiled enzyme as negative control
T1 construct: 256 residues, 28 kDa, cDNA 769 bp
T1 sequence (A0A1X9J191 62-294): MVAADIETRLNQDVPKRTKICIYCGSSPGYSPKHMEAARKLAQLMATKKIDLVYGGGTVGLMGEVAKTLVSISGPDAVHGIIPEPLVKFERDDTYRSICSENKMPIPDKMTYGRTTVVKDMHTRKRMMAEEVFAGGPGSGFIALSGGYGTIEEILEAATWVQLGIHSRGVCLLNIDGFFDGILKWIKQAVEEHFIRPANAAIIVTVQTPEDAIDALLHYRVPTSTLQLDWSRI

CgCAO = molecular target: T2, CgCAO (Colletotrichum gloeosporioides, UniProt A0A191JKR0); assay: LC-MS detection of delta1-piperideine (m/z […]); format: biochemical; settings: 1 mM cadaverine, 50 mM Tris-HCl pH 8.0, 25 °C, 16 h; boiled enzyme as negative control
T2 construct: 672 residues, 76 kDa, cDNA 2072 bp
T2 sequence (A0A191JKR0 1-684): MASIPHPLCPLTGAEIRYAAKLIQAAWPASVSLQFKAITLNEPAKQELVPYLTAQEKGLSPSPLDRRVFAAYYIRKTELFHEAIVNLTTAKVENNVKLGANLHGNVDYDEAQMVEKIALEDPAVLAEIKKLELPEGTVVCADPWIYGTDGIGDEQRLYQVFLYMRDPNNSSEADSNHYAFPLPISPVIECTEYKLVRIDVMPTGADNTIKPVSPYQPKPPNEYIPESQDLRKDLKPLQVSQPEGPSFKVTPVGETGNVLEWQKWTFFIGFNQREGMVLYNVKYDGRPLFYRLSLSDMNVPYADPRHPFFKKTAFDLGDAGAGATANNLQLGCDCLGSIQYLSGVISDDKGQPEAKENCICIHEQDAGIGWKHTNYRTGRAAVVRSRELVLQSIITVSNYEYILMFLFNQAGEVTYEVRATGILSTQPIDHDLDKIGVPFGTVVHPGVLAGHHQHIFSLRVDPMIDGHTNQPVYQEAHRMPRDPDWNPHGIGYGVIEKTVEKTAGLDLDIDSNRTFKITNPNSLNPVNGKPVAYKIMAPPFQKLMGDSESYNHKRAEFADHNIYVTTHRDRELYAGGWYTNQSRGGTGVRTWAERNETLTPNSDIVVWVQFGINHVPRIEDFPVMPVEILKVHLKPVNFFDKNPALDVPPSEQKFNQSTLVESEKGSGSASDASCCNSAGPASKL

SMILES	LC-MS detection of cadaverine (m/z 103) (CgLDC)	LC-MS detection of delta1-piperideine (m/z 84) (CgCAO)
NCCCC[C@H](N)C(=O)O [L-lysine]	CgLDC catalyzed the conversion of L-lysine to cadaverine	–
NCCCCCN [cadaverine]	–	CgCAO converted cadaverine to 5-aminopentanal

Source: publication PMC5459845, “Expression and functional analysis of the lysine decarboxylase and copper amine oxidase genes from the endophytic fungus Colletotrichum gloeosporioides ES026” (Scientific Reports, 2017)
